Data published in patent US12077508B2, “Inhibitors of the Notch transcriptional activation complex kinase (“NACK”) and methods for use of the same” (UNIVERSITY OF MIAMI, priority 2018, dated 2024).
Read-outs that look alike come from different tables or passages of the source.

Experiments:
[1] = target: T1, NACK binding to the Notch transcription complex (Mus musculus, UniProt Q571I4); assay: CSL-DNA affinity precipitation (CSL-DAP) assay; type: cell-based
T1 construct: expressed in transfected cells; host or cells: 293T
T1 sequence (Q571I4 1-1373): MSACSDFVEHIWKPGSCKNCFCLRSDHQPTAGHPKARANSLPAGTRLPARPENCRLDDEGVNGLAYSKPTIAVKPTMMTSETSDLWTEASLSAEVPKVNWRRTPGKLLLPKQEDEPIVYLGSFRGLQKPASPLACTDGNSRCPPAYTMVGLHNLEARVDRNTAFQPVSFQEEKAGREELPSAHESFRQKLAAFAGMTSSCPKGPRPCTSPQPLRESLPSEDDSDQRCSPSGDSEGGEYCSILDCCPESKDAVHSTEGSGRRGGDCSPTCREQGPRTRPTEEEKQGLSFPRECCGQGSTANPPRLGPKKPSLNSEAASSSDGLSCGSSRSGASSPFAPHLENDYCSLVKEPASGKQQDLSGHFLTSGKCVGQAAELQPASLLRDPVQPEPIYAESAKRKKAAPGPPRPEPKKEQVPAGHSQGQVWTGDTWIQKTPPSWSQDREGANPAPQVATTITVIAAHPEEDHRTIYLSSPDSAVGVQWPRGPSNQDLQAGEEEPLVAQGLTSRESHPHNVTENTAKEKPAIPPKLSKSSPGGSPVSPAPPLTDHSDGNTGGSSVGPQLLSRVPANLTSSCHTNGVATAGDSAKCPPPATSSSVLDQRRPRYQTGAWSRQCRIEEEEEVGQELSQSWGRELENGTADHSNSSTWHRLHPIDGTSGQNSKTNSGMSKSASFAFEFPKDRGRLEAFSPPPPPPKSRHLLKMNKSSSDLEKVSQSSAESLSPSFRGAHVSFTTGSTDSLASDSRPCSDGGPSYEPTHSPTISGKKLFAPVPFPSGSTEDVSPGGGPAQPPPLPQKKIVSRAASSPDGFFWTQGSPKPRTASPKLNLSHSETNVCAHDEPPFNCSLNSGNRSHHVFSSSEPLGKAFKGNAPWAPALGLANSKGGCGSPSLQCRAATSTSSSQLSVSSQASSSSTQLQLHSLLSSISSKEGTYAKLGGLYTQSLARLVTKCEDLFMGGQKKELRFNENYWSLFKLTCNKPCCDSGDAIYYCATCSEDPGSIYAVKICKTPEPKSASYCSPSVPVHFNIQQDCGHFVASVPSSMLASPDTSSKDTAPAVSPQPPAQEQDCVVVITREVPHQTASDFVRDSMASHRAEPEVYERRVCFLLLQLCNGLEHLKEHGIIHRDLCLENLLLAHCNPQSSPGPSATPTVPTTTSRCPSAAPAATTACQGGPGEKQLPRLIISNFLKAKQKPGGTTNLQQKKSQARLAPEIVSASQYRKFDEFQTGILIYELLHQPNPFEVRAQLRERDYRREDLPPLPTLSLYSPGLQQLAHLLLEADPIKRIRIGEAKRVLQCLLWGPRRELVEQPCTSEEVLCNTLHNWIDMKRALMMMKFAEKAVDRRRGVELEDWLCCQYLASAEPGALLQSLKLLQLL
Protocol: (§1) To determine the specificity of hit-to-lead compounds targeting NACK activity, it was evaluated whether iNACK can block NACK binding to the Notch complex by conducting CSL-DNA affinity precipitation (CSL-DAP) assay. […] In the CSL-DAP assay, 293T cells were co-transfected with N1^ICD, Maml1 and NACK. Transfections were performed using LipoJet transfection reagent (SL100468, SignaGen Laboratories) according to the manufacturer recommended protocol. After two days of transfection, cells were treated with compounds for 2 hours prior collecting the cell lysate. Cell lysates were incubated with DNA streptavidin beads. Proteins that bound to the beads were analyzed by Western blot.
(§2) Western blot was performed as described previously (See Weaver et al., Cancer Research 74, 4741-4751 (2014)). Primary antibodies were α-NACK (1:1,000; against aa209-287 of NACK and affinity purified), α-CSL (1:1,000; generated against full-length CSL and affinity purified), α-Maml1 (1:5,000; Cell Signaling Technology), α-cleaved-Notch1 (1:1,000; Cell Signaling Technology).

[2] = test system: NACK binding to the Notch transcription complex; assay: CSL-DNA affinity precipitation (CSL-DAP) assay; type: cell-based, mouse; conditions: Y999F NACK and Q1024E NACK mutants (mouse NACK); FIG. 10D
Protocol: as §1, §2

HES1 promoter = assay: Chromatin immunoprecipitation (ChIP) at the HES1 promoter in OE33; type: cell-based, human; conditions: FIG. 8C
Protocol: Notch/NACK-dependent cells were treated with either DAPT as a positive control, DMSO (vehicle) as a negative control, or compounds for screening for 24 hours. After treatment, cells were cross-linked and sonicated to yield chromatin fragments of approximately 500 bp, as previously described (See Weaver et al., Cancer Research 74, 4741-4751 (2014)). Lysates were immunoprecipitated with either α-Notch1 (Bethyl Laboratories, Montgomery, TX; A301-894A), α-Maml1 (Cell Signaling, 12166s), α-NACK (Bethyl Laboratories, A302-675A), or α-PoIII pSer5 (Abcam, ab5131) antibodies. DNA immunoprecipitates were cleaned using the PCR purification Kit (Qiagen). DNA were detected by Syber green qPCR using HES1 specific oligonucleotide primers (forward: 5′CGTGTCTCCTCCTCCCATT3′ (SEQ ID NO: 2); reverse: 5′GGGGGATTCCGCTGTTAT3′ (SEQ ID NO:3)).

OE33 cell line = assay: Colony formation assay in OE33 cells; type: cell-based, human; conditions: for EC50: Homo sapiens, read-out: EC50 colony formation titration assay
Protocol: A cell based colony formation assay was used in these experiments. Normal mouse mammary epithelia HC11 cells have little or no endogenous NACK expression, and NACK knockdown had no effect on the growth of HC11 cells (FIG. 5A, lower panel). […] Knockdown of NACK was confirmed by western blot and qPCR (FIGS. 1D and 1E). […] Therefore, compounds that affect OE33 colony formation but not HC11 were desired. In order to screen the compounds, cells were treated with test compounds every other day.
Colony formation assay was utilized to determine the effect of small molecule inhibitors on cell proliferation. In general, different cell lines (NACK dependent or independent) will be seeded in 6-well plates at a density of 2000 cells per well and allowed to attach overnight. Inhibitor treatment commenced 24 hours post seeding, and the media containing inhibitor was changed every 48 hours thereafter. After 168 hours, colonies were be stained with Crystal Violet (Millipore) and counted.

For CCN(CC)C(=O)c1cnn2ccc(C3CCN(S(=O)(=O)c4ccc(NC(C)=O)cc4)CC3)cc12 [Compound Z271-0326, 5-(1-((4-acetamidophenyl)sulfonyl)piperidin-4-yl)-N,N-diethylpyrazolo[1,5-a]pyridine-3-carboxamide], the “inhibition of NACK binding to the Notch transcription complex” value ([1]; 293T cells transfected with N1ICD, Maml1, NACK, 2 hours treatment, FIG. 6A) was “dramatically inhibit NACK binding to the NOTCH transcription complex”, the “recruitment of NACK to the Notch ternary complex” value ([1]; WT NACK, FIG. 10D) was “block recruitment of NACK to the Notch ternary complex” and the “recruitment of NACK to the Notch complex” value [2] was “insensitive to inhibition”. For the same compound, the “binding of N1ICD and NACK to the HES1 promoter” value (HES1 promoter; 24 hours) was “abrogated the binding of N1ICD and NACK to the HES1 promoter”, the “Pol II pSer5 initiation complex formation at the HES1 promoter” value (HES1 promoter) was “decreases the RNA polymerase initiation complex (Pol II pSer5) formation at the HES1 promoter” and the EC50 (OE33 cell line; OE33, OE33 cell line, FIG. 18) was 1270 nM. The EC50 (OE33 cell line; OE33, estimated, FIG. 6C) was 1050 nM and the OE33 colony formation (OE33 cell line; cells treated every other day, FIGS. 5B, 5C) was “effectively inhibit OE33 colony formation”.
